Experimental data reported in PubChem BioAssay (NCI).
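Cultured in 96-well plates, cells were exposed to test compound for 48 hours across five concentrations. Here, GI50 denotes the concentration required for 50% inhibition of growth. TGI denotes the concentration required for complete inhibition of growth.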

How the values were obtained:
Assay in all cases: NCI-60 cell line screen, 48 h
[1] = system: NCI-H460 lung
[2] = system: SF-268 CNS
[3] = system: HL-60(TB) leukemia
[4] = system: SR leukemia
[5] = system: SK-MEL-5 melanoma
[6] = system: OVCAR-3 ovarian
[7] = system: MOLT-4 leukemia
[8] = system: UO-31 renal
[9] = system: OVCAR-4 ovarian
[10] = system: RPMI-8226 leukemia

| SMILES | TGI [1] [µM] | TGI [2] | TGI [3] | TGI [4] [µM] | TGI [5] | TGI [6] | TGI [7] [µM] | TGI [8] [µM] | TGI [9] [µM] | TGI [10] [µM] | GI50 [1] | GI50 [2] | GI50 [3] | GI50 [4] | GI50 [5] | GI50 [9] | GI50 [6] | GI50 [10] | GI50 [7] | GI50 [8] [µM] |
| --- | --- | --- | --- | --- | --- | --- | --- | --- | --- | --- | --- | --- | --- | --- | --- | --- | --- | --- | --- | --- |
| CN(C)CCNC(=O)c1cccc(N(C)C(=O)c2ccccc2)c1[N+](=O)[O-] | > 100 | > 100 µM | > 100 µM | > 100 | > 100 µM | > 100 µM | > 100 | > 100 | – | – | – | – | – | – | – | – | – | – | – | – |
| O=c1[nH]c(=S)[nH]c2c1CN(CCCN1CCOCC1)CN2 | 87.2 | 59.1 µM | – | > 100 | > 100 µM | > 100 µM | 83 | > 100 | > 100 | 75.6 | – | – | – | – | – | – | – | – | – | – |
| O=C(COc1cc(O)c2c(=O)cc(-c3ccccc3)oc2c1)Nc1ccccc1C(F)(F)F | 6.68 | 26.1 µM | > 100 µM | > 100 | 25.4 µM | 4.12 µM | > 100 | – | 5.94 | > 100 | 2.59 µM | 4.94 µM | > 100 µM | 4.44 µM | 4.1 µM | 2.45 µM | 2.12 µM | 7.03 µM | 5.46 µM | – |
| Nc1nnnn1CCO | > 100 | > 100 µM | – | – | > 100 µM | > 100 µM | – | > 100 | > 100 | > 100 | – | – | – | – | – | – | – | – | – | – |
| CC(Nc1ccc(S(=O)(=O)N=C(N)N)cc1)c1c2ccccc2nc2ccccc12 (centres undefined) | 83.8 | > 100 µM | 39.2 µM | 65.7 | – | > 10 µM | 48.1 | 65.6 | 31.3 | 55.2 | – | – | – | – | – | – | – | – | – | – |
| Oc1ccc(C(c2ccc(O)cc2)c2ccc(O)cc2)cc1 | 46.3 | > 100 µM | 41.5 µM | 75.3 | 30.6 µM | – | 52.2 | 44.6 | 29.1 | 56.8 | – | – | – | – | – | – | – | – | – | – |
| CCC(=C/[C@H](C)C/C=C/C(C)=C/[C@@H](C)C(=O)[C@@H](C)[C@H](O)[C@@H](C)CC)/C=C/[C@@H]1OC(=O)C=C[C@H]1C | – | – | < 0.01 µM | 0.115 | < 0.01 µM | < 0.01 µM | – | – | 1.5 | < 0.01 | – | < 0.01 µM | < 0.01 µM | < 0.01 µM | < 0.01 µM | < 0.01 µM | < 0.01 µM | < 0.01 µM | – | < 0.01 |
| C/C(=N\NS(=O)(=O)c1ccc(C)cc1)P(=O)(O)O | > 100 | > 100 µM | – | – | > 100 µM | > 100 µM | – | > 100 | > 100 | > 100 | – | – | – | – | – | – | – | – | – | – |
| O=C(O)CCC(N=Cc1nc(-c2ccccc2)oc1O)C(=O)O (centres undefined) | > 100 | > 100 µM | – | > 100 | > 100 µM | > 100 µM | > 100 | > 100 | > 100 | > 100 | – | – | – | – | – | – | – | – | – | – |
| O=[P+](O)c1ccsc1 | > 100 | > 100 µM | > 100 µM | – | > 100 µM | – | > 100 | > 100 | – | > 100 | – | – | – | – | – | – | – | – | – | – |
| Clc1ccc(-c2c3c(nn2-c2ccccn2)CCc2ccccc2-3)cc1Cl | > 100 | > 100 µM | – | > 100 | > 100 µM | > 100 µM | > 100 | > 100 | > 100 | > 100 | > 100 µM | > 100 µM | – | 78.1 µM | > 100 µM | 39.8 µM | > 100 µM | 31.4 µM | > 100 µM | > 100 |
| C#CCSc1cc(Cl)c(C)cc1S(=O)(=O)Nc1nc2ccccc2o1 | > 100 | > 100 µM | – | > 100 | 40.2 µM | 76.9 µM | > 100 | 52.8 | > 100 | > 100 | 37.5 µM | 59.8 µM | – | 35.6 µM | 20.5 µM | 51 µM | 31.9 µM | 38.1 µM | 41.8 µM | 23.8 |
| O=C(c1ccccc1)C1OC1c1ccc([N+](=O)[O-])cc1 (centres undefined) | 40.2 | > 100 µM | – | – | 16.7 µM | 17.8 µM | – | 93.2 | > 100 | > 100 | 10 µM | 8.73 µM | – | – | 3.81 µM | 4.57 µM | 3.84 µM | 8.29 µM | – | 5.94 |
| COC(=O)C(C(=O)C(=O)Nc1ccc([N+](=O)[O-])cc1[N+](=O)[O-])c1nc2ccc(Cl)cc2[nH]c1=O (centres undefined) | > 100 | > 100 µM | > 100 µM | – | > 100 µM | > 100 µM | > 100 | > 100 | > 100 | > 100 | – | – | – | – | – | – | – | – | – | – |
| Cc1csc(/C=C/C(=O)c2nnn(-c3ccnc4c(C(F)(F)F)cccc34)c2C)c1 | > 100 | > 100 µM | > 100 µM | > 100 | 57 µM | > 100 µM | 66.9 | > 100 | – | > 100 | 43.5 µM | 25.8 µM | 29.7 µM | 23 µM | 17.9 µM | – | > 100 µM | 23.6 µM | 22.2 µM | 94.4 |
| O=C(Nc1ccc(Cl)c(Cl)c1)Nc1c(Oc2ccc(Cl)c(Cl)c2)ccc(Cl)c1S(=O)(=O)O | > 100 | > 100 µM | – | > 100 | 3.11 µM | – | > 100 | > 100 | – | > 100 | 3.01 µM | 3.82 µM | – | 0.504 µM | 1.33 µM | – | – | 2.91 µM | 4.1 µM | 3.13 |
| C=CC(=O)Nc1cc(C)ccc1Nc1nc(Nc2cc(OC)ncc2C)ncc1C(F)(F)F | 11.4 | > 100 µM | 3.7 µM | – | 5.42 µM | > 100 µM | > 100 | 2.27 | > 100 | > 25.3 | 2.13 µM | 1.28 µM | 0.637 µM | – | 1.77 µM | 1.34 µM | 1.4 µM | 0.634 µM | 3.55 µM | 0.214 |
| C[n+]1c2cc(N)ccc2cc2ccc(N)cc21 | – | 3.47 µM [middle of 4 runs] | 9.76 µM [middle of 4 runs] | – | 2.57 µM [middle of 4 runs] | 7.45 µM [middle of 4 runs] | – | – | – | – | 460 nM [middle of 4 runs] | 572 nM [middle of 4 runs] | 2.83 µM [middle of 4 runs] | 687 nM [middle of 4 runs] | 1.23 µM [middle of 4 runs] | 1.34 µM [middle of 4 runs] | 1.58 µM [middle of 4 runs] | 1.89 µM [middle of 4 runs] | 547 nM [middle of 4 runs] | – |
